The target of the test is T1, CDK2/Cyclin E complex (Homo sapiens, UniProt P24941).
T1 construct: purchased Eurofins 14-475
As to the kind of experiment: CDK2/Cyclin E fluorescence-based microfluidic mobility shift assay (CDK2 Biochemical Caliper Assay). The conditions noted are these: read-out: Biochemical CDK2/CyclinE Caliper IC50. As for the experimental part:
Compounds of the present disclosure were tested in a CDK2/Cyclin E fluorescence-based microfluidic mobility shift assay (PerkinElmer).
The active wild type CDK2/Cyclin E complex was purchased from Eurofins (14-475). Compound stocks were prepared in DMSO and were serially diluted into 11 concentrations by 3-fold dilution. […] Compounds were incubated in the presence of CDK2/Cyclin E complex and ATP for 30 minutes at room temperature. Catalytic reaction was initiated with the addition of 5 uL of a 4× peptide solution containing 6 uM fluorescently label substrate peptide, FL Peptide 18 (aa sequence 5-FAM-QSPKKG, PerkinElmer, 760362) in 1× reaction buffer.
The final reaction components were 0.1 nM CDK2/Cyclin E, 2000 uM ATP and 1.5 uM FL Peptide 18 and 1% DMSO. Reactions were incubated RT for 20 hr and terminated with 75 uL of a stopping solution containing 0.5 M EDTA. Samples were analyzed using a LabChip EZ reader (PerkinElmer).
As for `Cc1cc(CC(=O)Nc2cc([C@H]3CC[C@@H](NC(N)=O)C3)[nH]n2)on1` (racemic) [Example 10], the IC50 lay within 0.25 to 1 µM.

For `Cc1cc(CC(=O)Nc2cc([C@H]3C[C@@H]4CC[C@H]3C4)[nH]n2)on1` (racemic) [Example 49], the IC50 lay within 1 to 100 µM.

Take `Cc1cc(CC(=O)Nc2cc(N3CC[C@@H](COC(=O)NC4(C)CC4)C3)[nH]n2)on1` (racemic) [Example 53]: the IC50 lay within 1 to 100 µM.

As to `CC(C)NC(=O)O[C@@H]1CC[C@H](c2cc(Nc3nc4cccnc4o3)n[nH]2)C1` (racemic) [Example 140], the IC50 was at most 0.1 µM.

In the case of `COCc1cc(C(=O)Nc2cc([C@H]3CC[C@H](c4ccc(C)[nH]c4=O)C3)[nH]n2)n(C)n1` (racemic) [Example 517], the IC50 was 1 to 100 µM.

On to `COCc1cc(C(=O)Nc2cc([C@H]3CC[C@@H](c4ccc(C)[nH]c4=O)C3)[nH]n2)n(C)n1` (racemic) [Example 518], for which the IC50 lay within 0.25 to 1 µM.

As to `COCc1cc(C(=O)Nc2cc([C@@H]3CC[C@@H](c4ccc(C(C)C)cn4)C3)[nH]n2)n(C)n1` (racemic) [Example 571], the IC50 fell in the range of 1 to 100 µM.

With `C[C@H]1CC[C@H](C)N1C(=O)OC[C@H]1C[C@@H](c2cc(Nc3ccc4c(n3)C(C)(C)NC4=O)n[nH]2)C1` (racemic) [Example 593], the IC50 was at most 0.1 µM.

In the case of `Cc1cc(CC(=O)Nc2cc([C@H]3CCC[C@H](OC(=O)NC4(C)CC4)CC3)[nH]n2)on1` (single isomer, unassigned) [Example 26], the IC50 was in the range of 1 to 100 µM.

`Cc1cc(CC(=O)Nc2cc([C@@H]3C[C@H](OC(=O)NC4(C)CC4)CO3)[nH]n2)on1` (single isomer, unassigned) [Example 69]: the IC50 is at most 0.1 µM.

With `CC(C)NC(=O)N[C@@H]1CC[C@H](c2cc(Nc3ncccn3)n[nH]2)C1` (single isomer, unassigned) [Example 86], the IC50 fell in the range of 1 to 100 µM.

With `Cc1cc(CC(=O)Nc2cc([C@H]3CC[C@@H](N4CC5(CC5)NC4=O)C3)[nH]n2)on1` (single isomer, unassigned) [Example 90], the IC50 lay in the range of 0.25 to 1 µM.

As for `Cc1cc(CC(=O)Nc2cc([C@H]3CC[C@@H](n4cc(C)[nH]c4=O)C3)[nH]n2)on1` (single isomer, unassigned) [Example 92], the IC50 fell in the range of 0.25 to 1 µM.

Regarding `Cc1cc(CC(=O)Nc2cc([C@H]3CC[C@@H](n4cc(C(C)C)[nH]c4=O)C3)[nH]n2)on1` (single isomer, unassigned) [Example 93], the IC50 fell in the range of 1 to 100 µM.

Turning to `Cc1cc(CC(=O)Nc2cc([C@H]3CC[C@@H](Oc4nnccc4C(C)C)C3)[nH]n2)on1` (single isomer, unassigned) [Example 97], the IC50 was at most 0.1 µM.

Consider `Cc1cc(CC(=O)Nc2cc([C@H]3C[C@@H](OC(=O)NC4(C)CC4)CO3)[nH]n2)on1` (single isomer, unassigned) [Example 101], for which the IC50 was at most 0.1 µM.

As for `Cc1cc(CC(=O)Nc2cc([C@@H]3CC[C@H](N(C)C(=O)NC(C)C)C3)[nH]n2)on1` (single isomer, unassigned) [Example 103], the IC50 fell in the range of 1 to 100 µM.

As for `Cc1cc(CC(=O)Nc2cc([C@@H]3CC[C@H](Oc4nnccc4C(C)C)C3)[nH]n2)on1` (single isomer, unassigned) [Example 104], the IC50 was at most 0.1 µM.

With `Cc1cc(CC(=O)Nc2cc([C@H]3C[C@H](OC(=O)NC4(C)CC4)CO3)[nH]n2)on1` (single isomer, unassigned) [Example 108], the IC50 lay in the range of 1 to 100 µM.

As to `Cc1cc(CC(=O)Nc2cc([C@@H]3C[C@@H](OC(=O)NC4(C)CC4)CO3)[nH]n2)on1` (single isomer, unassigned) [Example 109], the IC50 lay in the range of 1 to 100 µM.

As to `COCc1nc2cc(Nc3cc([C@H]4CC[C@@H](OC(=O)NC(C)C)C4)[nH]n3)ncc2s1` (single isomer, unassigned) [Example 111], the IC50 lay in the range of 0.25 to 1 µM.

Regarding `COCc1nc2cc(Nc3cc([C@@H]4CC[C@H](OC(=O)NC(C)C)C4)[nH]n3)ncc2s1` (single isomer, unassigned) [Example 112], the IC50 is 0.1 to 0.25 µM.

As to `CC(C)NC(=O)O[C@H]1CC[C@@H](c2cc(Nc3ccsn3)n[nH]2)C1` (single isomer, unassigned) [Example 113], the IC50 was 1 to 100 µM.

As to `CC(C)NC(=O)O[C@@H]1CC[C@H](c2cc(Nc3ccsn3)n[nH]2)C1` (single isomer, unassigned) [Example 114], the IC50 was in the range of 1 to 100 µM.

In the case of `Cc1cc(CC(=O)Nc2cc([C@@H]3CC[C@H](N4CC(C)(C)NC4=O)C3)[nH]n2)on1` (single isomer, unassigned) [Example 118], the IC50 lay in the range of 0.1 to 0.25 µM.

For `Cc1cc(CC(=O)Nc2cc([C@@H]3CC[C@H](Oc4nnccc4C)C3)[nH]n2)on1` (single isomer, unassigned) [Example 120], the IC50 was at most 0.1 µM.

In the case of `CC(C)NC(=O)O[C@@H]1CC[C@H](c2cc(Nc3nccc4ncsc34)n[nH]2)C1` (single isomer, unassigned) [Example 121], the IC50 is at most 0.1 µM.

As to `CC(C)NC(=O)O[C@H]1CC[C@@H](c2cc(Nc3nccc4ncsc34)n[nH]2)C1` (single isomer, unassigned) [Example 122], the IC50 was at most 0.1 µM.

Consider `CC(C)NC(=O)N[C@@H]1CC[C@H](c2cc(Nc3ncccn3)n[nH]2)C1` (single isomer, unassigned) [Example 123], for which the IC50 lay within 1 to 100 µM.

Consider `CC(C)NC(=O)N[C@H]1CC[C@@H](c2cc(Nc3ncccn3)n[nH]2)C1` (single isomer, unassigned) [Example 124], for which the IC50 lay in the range of 1 to 100 µM.

Consider `Cc1cc(CC(=O)Nc2cc([C@H]3CC[C@@H](Oc4nscc4C4CC4)C3)[nH]n2)on1` (single isomer, unassigned) [Example 127], for which the IC50 was at most 0.1 µM.

With `Cc1cc(CC(=O)Nc2cc([C@@H]3CC[C@H](Oc4nscc4C4CC4)C3)[nH]n2)on1` (single isomer, unassigned) [Example 128], the IC50 was at most 0.1 µM.

For `Cc1cc(CC(=O)Nc2cc([C@H]3CC[C@@H](NC(=O)CC(C)C)C3)[nH]n2)on1` (single isomer, unassigned) [Example 129], the IC50 was 1 to 100 µM.

Consider `Cc1cc(CC(=O)Nc2cc([C@@H]3CC[C@H](NC(=O)CC(C)C)C3)[nH]n2)on1` (single isomer, unassigned) [Example 130], for which the IC50 lay in the range of 1 to 100 µM.

Consider `Cc1cc(CC(=O)Nc2cc([C@H]3CC[C@@H](NC(=O)c4ccccc4)C3)[nH]n2)on1` (single isomer, unassigned) [Example 131], for which the IC50 lay in the range of 1 to 100 µM.

In the case of `Cc1cc(CC(=O)Nc2cc([C@@H]3CC[C@H](NC(=O)c4ccccc4)C3)[nH]n2)on1` (single isomer, unassigned) [Example 132], the IC50 fell in the range of 1 to 100 µM.

With `CCS(=O)(=O)N[C@@H]1CC[C@H](c2cc(NC(=O)Cc3cc(C)no3)n[nH]2)C1` (single isomer, unassigned) [Example 133], the IC50 was in the range of 1 to 100 µM.

As for `CCS(=O)(=O)N[C@H]1CC[C@@H](c2cc(NC(=O)Cc3cc(C)no3)n[nH]2)C1` (single isomer, unassigned) [Example 134], the IC50 was 1 to 100 µM.

Consider `Cc1cc(CC(=O)Nc2cc([C@@H]3C[C@@H]3COC(=O)NC(C)C)[nH]n2)on1` (single isomer, unassigned) [Example 136], for which the IC50 was 1 to 100 µM.

For the molecule `Cc1cc(CC(=O)Nc2cc([C@H]3C[C@H]3COC(=O)NC(C)C)[nH]n2)on1` (single isomer, unassigned) [Example 137], the IC50 lay in the range of 1 to 100 µM.

As to `CC(C)NC(=O)O[C@@H]1CC[C@H](c2cc(Nc3nccn4nccc34)n[nH]2)C1` (single isomer, unassigned) [Example 138], the IC50 is at most 0.1 µM.

Take `CC(C)NC(=O)O[C@H]1CC[C@@H](c2cc(Nc3nccn4nccc34)n[nH]2)C1` (single isomer, unassigned) [Example 139]: the IC50 is at most 0.1 µM.

Turning to `Cc1cc(CC(=O)Nc2cc([C@H]3CC[C@H](N(C)C(=O)NC(C)C)C3)[nH]n2)on1` (single isomer, unassigned) [Example 141], the IC50 lay in the range of 1 to 100 µM.

As for `Cc1cc(CC(=O)Nc2cc([C@@H]3CC[C@@H](N(C)C(=O)NC(C)C)C3)[nH]n2)on1` (single isomer, unassigned) [Example 142], the IC50 lay in the range of 1 to 100 µM.

Regarding `Cc1cc(CC(=O)Nc2cc([C@H]3CC[C@@H](NC(=O)OC(C)C)C3)[nH]n2)on1` (single isomer, unassigned) [Example 143], the IC50 fell in the range of 1 to 100 µM.

Regarding `Cc1cc(CC(=O)Nc2cc([C@@H]3CC[C@H](NC(=O)OC(C)C)C3)[nH]n2)on1` (single isomer, unassigned) [Example 144], the IC50 is 1 to 100 µM.

With `CNS(=O)(=O)N[C@@H]1CC[C@H](c2cc(NC(=O)Cc3cc(C)no3)n[nH]2)C1` (single isomer, unassigned) [Example 145], the IC50 was in the range of 1 to 100 µM.

On to `CNS(=O)(=O)N[C@H]1CC[C@@H](c2cc(NC(=O)Cc3cc(C)no3)n[nH]2)C1` (single isomer, unassigned) [Example 146], for which the IC50 is 1 to 100 µM.

`Cc1cc(CC(=O)Nc2cc([C@@H]3CC[C@H](N4CC5(CC5)NC4=O)C3)[nH]n2)on1` (single isomer, unassigned) [Example 338]: the IC50 lay in the range of 0.25 to 1 µM.

In the case of `Cc1cc(CC(=O)Nc2cc([C@H]3CC[C@@H](Oc4cccnc4)C3)[nH]n2)on1` (single isomer, unassigned) [Example 339], the IC50 was 0.25 to 1 µM.

Consider `Cc1cc(CC(=O)Nc2cc([C@@H]3CC[C@H](Oc4cccnc4)C3)[nH]n2)on1` (single isomer, unassigned) [Example 340], for which the IC50 is 1 to 100 µM.

(Values after patent publication US20240190855A1 (Relay Therapeutics, Inc., priority 2021, published 2024).)
